Assay results: patent publication US20230233569A1 (Revolution Medicines, Inc., priority 2020, published 2023)
pIC50: −log10 of the molar value. Like-named read-outs stand apart in the source and are kept apart here.

What was measured:
[1] = molecular target: KRAS G13C (Homo sapiens, UniProt P01116+P62937, G13C); assay: Disruption of BRAF RBD interaction with Ras (FRET / MOA assay, with Cyclophilin A); format: biochemical
In short: (§1)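 Here, compound titrations (ten points, factor 3, from 30 μM final) act on nucleotide-bound K-Ras and Cyclophilin A, and ternary complex formation disrupts the RAF RBD interaction.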

[2] = molecular target: KRAS G13D (Homo sapiens, UniProt P01116+P62937, G13D); assay: as above; format: biochemical
Chain of KRAS G13D (P01116 1-169 isoform P01116-2 G13D limits assumed): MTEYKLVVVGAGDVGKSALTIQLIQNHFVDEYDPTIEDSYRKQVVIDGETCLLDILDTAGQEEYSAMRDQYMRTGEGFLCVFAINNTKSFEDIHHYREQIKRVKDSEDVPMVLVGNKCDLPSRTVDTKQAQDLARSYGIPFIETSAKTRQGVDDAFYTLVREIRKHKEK
Chain of KRAS G13D (P62937 whole entry): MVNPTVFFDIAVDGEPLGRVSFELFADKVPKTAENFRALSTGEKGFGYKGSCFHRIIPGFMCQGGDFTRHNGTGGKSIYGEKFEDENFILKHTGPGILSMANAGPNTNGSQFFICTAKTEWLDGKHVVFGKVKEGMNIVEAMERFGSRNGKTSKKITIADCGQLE
In short: as §1

[3] = molecular target: NRAS G12C (Homo sapiens, UniProt P01111+P62937, G12C); assay: as above; format: biochemical
Chain of NRAS G12C (P01111 whole entry G12C): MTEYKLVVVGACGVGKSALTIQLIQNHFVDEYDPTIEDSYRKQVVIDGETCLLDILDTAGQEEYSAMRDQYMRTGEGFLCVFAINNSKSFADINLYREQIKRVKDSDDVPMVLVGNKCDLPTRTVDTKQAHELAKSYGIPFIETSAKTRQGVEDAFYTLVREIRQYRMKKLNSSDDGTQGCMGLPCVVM
Chain of NRAS G12C (P62937 whole entry): as the sequence (P62937 whole entry) above

[4] = molecular target: KRAS G12S (Homo sapiens, UniProt P01116+P62937, G12S); assay: as above; format: biochemical
Chain of KRAS G12S (P01116 1-169 isoform P01116-2 G12S limits assumed): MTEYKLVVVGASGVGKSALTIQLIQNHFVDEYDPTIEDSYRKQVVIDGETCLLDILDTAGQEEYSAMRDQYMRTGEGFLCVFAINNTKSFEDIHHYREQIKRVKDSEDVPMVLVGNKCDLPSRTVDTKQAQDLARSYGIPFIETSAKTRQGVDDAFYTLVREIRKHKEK
Chain of KRAS G12S (P62937 whole entry): as the sequence (P62937 whole entry) above
In short: as §1

[5] = molecular target: KRAS WT (Homo sapiens, UniProt P01116+P62937); assay: as above; format: biochemical
Chain of KRAS WT (P01116 1-169 isoform P01116-2 limits assumed): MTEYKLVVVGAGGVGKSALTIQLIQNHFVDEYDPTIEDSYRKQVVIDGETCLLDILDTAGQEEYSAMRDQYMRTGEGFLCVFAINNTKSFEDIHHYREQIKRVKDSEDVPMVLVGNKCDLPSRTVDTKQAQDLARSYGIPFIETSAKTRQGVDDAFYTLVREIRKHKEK
Chain of KRAS WT (P62937 whole entry): as the sequence (P62937 whole entry) above
In short: as §1

[6] = molecular target: KRAS G12D (Homo sapiens, UniProt P01116+P62937, G12D); assay: as above; format: biochemical
Chain of KRAS G12D (P01116 1-169 isoform P01116-2 G12D limits assumed): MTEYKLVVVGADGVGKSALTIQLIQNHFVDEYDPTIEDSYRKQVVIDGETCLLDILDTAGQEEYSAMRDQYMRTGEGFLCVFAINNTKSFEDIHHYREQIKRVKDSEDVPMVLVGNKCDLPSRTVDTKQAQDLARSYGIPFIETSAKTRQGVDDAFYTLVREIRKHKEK
Chain of KRAS G12D (P62937 whole entry): as the sequence (P62937 whole entry) above
In short: as §1

[7] = molecular target: KRAS G12V (Homo sapiens, UniProt P01116+P62937, G12V); assay: as above; format: biochemical
Chain of KRAS G12V (P01116 1-169 isoform P01116-2 G12V limits assumed): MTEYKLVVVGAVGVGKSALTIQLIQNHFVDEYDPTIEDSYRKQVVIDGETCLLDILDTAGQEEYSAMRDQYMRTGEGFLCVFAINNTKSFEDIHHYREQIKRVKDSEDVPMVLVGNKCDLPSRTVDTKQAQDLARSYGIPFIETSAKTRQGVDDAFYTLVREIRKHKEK
Chain of KRAS G12V (P62937 whole entry): as the sequence (P62937 whole entry) above
In short: as §1

[8] = molecular target: KRAS G12C (Homo sapiens, UniProt P01116+P62937, G12C); assay: as above; format: biochemical
Chain of KRAS G12C (P01116 1-169 isoform P01116-2 G12C): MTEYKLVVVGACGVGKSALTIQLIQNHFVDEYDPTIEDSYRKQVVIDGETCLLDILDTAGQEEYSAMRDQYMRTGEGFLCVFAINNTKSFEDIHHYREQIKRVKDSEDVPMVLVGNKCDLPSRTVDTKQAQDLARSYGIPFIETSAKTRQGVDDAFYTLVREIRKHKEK
Chain of KRAS G12C (P62937 whole entry): as the sequence (P62937 whole entry) above
In short: as §1

[9] = molecular target: NRAS WT (Homo sapiens, UniProt P01111+P62937); assay: as above; format: biochemical; details: NRAS WT; read-out: NRAS WT FRET data IC50
Chain of NRAS WT (P01111 whole entry): as the sequence (P01111 whole entry G12C) above, with C12G counted along it
Chain of NRAS WT (P62937 whole entry): as the sequence (P62937 whole entry) above
In short: (§2)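 IC50 reflects compound-driven Ras:Cyclophilin A ternary complex displacing BRAF RBD, read as lowered TR-FRET ratio relative to DMSO after Eu anti-His (10 nM) and APC anti-GST (50 nM) detection for 1.5 h. Prior incubation 3 h, 25° C, with 12.5 nM GMPPNP-loaded Ras, 50 nM BRAF RBD, 25 μM Cyclophilin A; top compound 30 μM.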

[10] = molecular target: KRAS Q61H (Homo sapiens, UniProt P01116+P62937, Q61H); assay: as above; format: biochemical; details: KRAS Q61H; read-out: KRAS Q61H FRET data IC50
Chain of KRAS Q61H (P01116 1-169 isoform P01116-2 Q61H limits assumed): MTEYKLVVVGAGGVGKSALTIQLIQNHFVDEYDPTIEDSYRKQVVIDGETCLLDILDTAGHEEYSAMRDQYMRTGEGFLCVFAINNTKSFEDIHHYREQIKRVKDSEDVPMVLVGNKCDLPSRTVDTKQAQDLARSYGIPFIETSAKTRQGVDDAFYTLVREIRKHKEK
Chain of KRAS Q61H (P62937 whole entry): as the sequence (P62937 whole entry) above
In short: as §2

[11] = molecular target: NRAS Q61R (Homo sapiens, UniProt P01111+P62937, Q61R); assay: as above; format: biochemical; details: NRAS Q61R; read-out: NRAS Q61R FRET data IC50
Chain of NRAS Q61R (P01111 whole entry Q61R): as the sequence (P01111 whole entry G12C) above, with C12G, Q61R counted along it
Chain of NRAS Q61R (P62937 whole entry): as the sequence (P62937 whole entry) above
In short: as §2

[12] = molecular target: NRAS Q61K (Homo sapiens, UniProt P01111+P62937, Q61K); assay: as above; format: biochemical; details: NRAS Q61K; read-out: NRAS Q61K FRET data IC50
Chain of NRAS Q61K (P01111 whole entry Q61K): as the sequence (P01111 whole entry G12C) above, with C12G, Q61K counted along it
Chain of NRAS Q61K (P62937 whole entry): as the sequence (P62937 whole entry) above
In short: as §2

[13] = tested on: NCI-H358 (K-Ras G12C); assay: CellTiter-Glo cell viability assay, 5-day treatment; format: cell-based; details: Homo sapiens, NCI-H358, 120 h, 5-day treatment; read-out: H358 Cell Viability assay data (K-Ras G12C, IC50)
In short: (§3)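 Five-day compound treatment of plated cells; luminescent read after ~30 min at RT. Percent-of-DMSO data fit to a four-parameter logistic model.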

[14] = tested on: Capan-1 (K-Ras G12V); assay: as above; format: cell-based; details: Homo sapiens, CAPAN-1, 120 h; for pIC50: 5-day treatment, read-out: Capan-1 Cell Viability assay data (K-Ras G12V, IC50)
In short: as §3

[15] = read-out: KRAS G13C FRET data, IC50
[16] = KRAS G13D, read-out: KRAS G13D FRET data IC50
[17] = NRAS G12C, read-out: NRAS G12C FRET data IC50
[18] = read-out: KRAS G12S FRET data, IC50
[19] = KRAS WT, read-out: KRAS WT FRET data IC50
[20] = read-out: KRAS G12D FRET data, IC50
[21] = KRAS G12V, read-out: KRAS G12V FRET data IC50
[22] = read-out: KRAS G12C FRET data, IC50

Chain of KRAS G13C (P01116 1-169 isoform P01116-2 G13C): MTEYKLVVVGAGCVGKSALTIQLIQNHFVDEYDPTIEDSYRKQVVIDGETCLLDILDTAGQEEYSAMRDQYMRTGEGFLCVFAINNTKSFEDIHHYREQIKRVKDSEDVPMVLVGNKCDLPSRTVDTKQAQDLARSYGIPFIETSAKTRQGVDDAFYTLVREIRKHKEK
Chain of KRAS G13C (P62937 whole entry): as the sequence (P62937 whole entry) above

CCn1c(-c2cc(C3CCN(C)CC3)cnc2[C@H](C)OC)c2c3cc(ccc31)-c1csc(n1)C[C@H](NC(=O)[C@H](C(C)C)N(C)C(=O)N1CC(C3COC3)C1)C(=O)N1CCC[C@H](N1)C(=O)OCC(C)(C)C2 [Example A465]
pIC50 [1, 15]: 7.00 to 8.00 | pIC50 [2, 16]: 6.00 to 7.00 | pIC50 [3, 17]: 7.00 to 8.00 | pIC50 [4, 18]: 7.00 to 8.00 | pIC50 [5, 19]: 7.00 to 8.00 | pIC50 [6, 20]: 6.00 to 7.00 | pIC50 [7, 21]: 7.00 to 8.00 | pIC50 [8, 22]: 7.00 to 8.00 | pIC50 [9]: 7.00 to 8.00 | pIC50 [10]: 7.00 to 8.00 | pIC50 [11]: 7.00 to 8.00 | pIC50 [12]: 7.00 to 8.00 | pIC50 [13]: > 8.00 | IC50 ([14]; read-out: Capan-1 Cell Viability assay data (K-Ras G12V, IC50, uM)): < 0.01 µM

CCn1c(-c2cccnc2[C@H](C)OC)c2c3cc(ccc31)-c1csc(n1)C[C@H](NC(=O)[C@H](C(C)C)N(C)C(=O)N1CCN(C)CC1)C(=O)N1CCC[C@H](N1)C(=O)OCC(C)(C)C2 [Example A570]
pIC50 [1, 15]: 6.00 to 7.00 | pIC50 [2, 16]: 6.00 to 7.00 | pIC50 [3, 17]: 6.00 to 7.00 | pIC50 [4, 18]: 6.00 to 7.00 | pIC50 [5, 19]: 6.00 to 7.00 | pIC50 [6, 20]: 5.00 to 6.00 | pIC50 [7, 21]: 6.00 to 7.00 | pIC50 [8, 22]: 6.00 to 7.00 | pIC50 [9]: 6.00 to 7.00 | pIC50 [10]: 6.00 to 7.00 | pIC50 [11]: 6.00 to 7.00 | pIC50 [12]: 6.00 to 7.00 | pIC50 [13]: 7.00 to 8.00 | pIC50 [14]: 7.00 to 8.00

CCn1c(-c2cccnc2[C@H](C)OC)c2c3cc(ccc31)-c1csc(n1)C[C@H](NC(=O)[C@H](C(C)C)N(C)C(=O)N1CC3(CCCO3)C1)C(=O)N1CCC[C@H](N1)C(=O)OCC(C)(C)C2 (atropisomer, axis not shown) [Example A522]
pIC50 [1, 15]: 6.00 to 7.00 | pIC50 [2, 16]: 5.00 to 6.00 | pIC50 [3, 17]: 6.00 to 7.00 | pIC50 [4, 18]: 6.00 to 7.00 | pIC50 [5, 19]: 6.00 to 7.00 | pIC50 [6, 20]: 5.00 to 6.00 | pIC50 [7, 21]: 6.00 to 7.00 | pIC50 [8, 22]: 6.00 to 7.00 | pIC50 [9]: 6.00 to 7.00 | pIC50 [10]: 6.00 to 7.00 | pIC50 [11]: 6.00 to 7.00 | pIC50 [12]: 7.00 to 8.00 | pIC50 [13]: 7.00 to 8.00 | pIC50 [14]: 6.00 to 7.00

CCn1c(-c2cccnc2[C@H](C)OC)c2c3cc(ccc31)-c1csc(n1)C[C@H](NC(=O)[C@H](C(C)C)N(C)C(=O)N1C3CC1CN(C)C3)C(=O)N1CCC[C@H](N1)C(=O)OCC(C)(C)C2 [Example A541]
pIC50 [1, 15]: 6.00 to 7.00 | pIC50 [2, 16]: 5.00 to 6.00 | pIC50 [3, 17]: 6.00 to 7.00 | pIC50 [4, 18]: 6.00 to 7.00 | pIC50 [5, 19]: 6.00 to 7.00 | pIC50 [6, 20]: 5.00 to 6.00 | pIC50 [7, 21]: 6.00 to 7.00 | pIC50 [8, 22]: 6.00 to 7.00 | pIC50 [9]: 6.00 to 7.00 | pIC50 [10]: 6.00 to 7.00 | pIC50 [11]: 6.00 to 7.00 | pIC50 [12]: 6.00 to 7.00 | pIC50 [13]: 7.00 to 8.00 | pIC50 [14]: 6.00 to 7.00

CCn1c(-c2cccnc2[C@H](C)OC)c2c3cc(ccc31)-c1csc(n1)C[C@H](NC(=O)[C@H](C(C)C)N(C)C(=O)N1CCC(N(C)C)CC1)C(=O)N1CCC[C@H](N1)C(=O)OCC(C)(C)C2 (atropisomer, axis not shown) [Example A571]
pIC50 ([1]; KRAS G13C FRET data, IC50): 6.00 to 7.00 | pIC50 ([2]; KRAS G13D FRET data IC50, KRAS G13D): 6.00 to 7.00 | pIC50 ([3]; NRAS G12C FRET data IC50, NRAS G12C): 7.00 to 8.00 | pIC50 ([4]; KRAS G12S FRET data, IC50): 6.00 to 7.00 | pIC50 ([5]; KRAS WT FRET data IC50, KRAS WT): 7.00 to 8.00 | pIC50 ([6]; KRAS G12D FRET data, IC50): 6.00 to 7.00 | pIC50 ([7]; KRAS G12V FRET data IC50, KRAS G12V): 6.00 to 7.00 | pIC50 ([8]; KRAS G12C FRET data, IC50): 7.00 to 8.00 | pIC50 [9]: 7.00 to 8.00 | pIC50 [10]: 7.00 to 8.00 | pIC50 [11]: 6.00 to 7.00 | pIC50 [12]: 7.00 to 8.00 | pIC50 [13]: 7.00 to 8.00 | pIC50 [14]: 7.00 to 8.00
